The test system of one test is HIF-1α. Kind of test: Immunohistochemical staining of tumor sections for HIF-1α. The format is in vivo, mouse. The note with it: tumors excised from treated mice. The text has this:
Histopathological changes in the subcutaneous tumors: To analyze the tumor vasculature of TAT PTD, SM treated and P44 treated mice, the tumor sections were stained with HE. […] In SM treated tumors, due to compressed vessels, the shape of RBCs were also distorted (FIG. 7A, lower right panel, arrow marked). […] The presence of hypoxic cells is a hallmark of cancer (Brown, J. M., and Wilson, W. R. (2004) Nat. Rev. Cancer 4, 437-447; Minchinton, A. I., and Tannock, I. F. (2006) Nat. Rev. Cancer 6, 583-592). Cellular responses to hypoxia are triggered by the hypoxia inducible factor-1 alpha (HIF-1α) that is known to restore tissue homeostasis in hypoxic conditions (Semenza, G. L. (2000) Genes Dev. 14, 1983-1991). To determine the status of HIF-1α expression, immunohistochemical analysis was performed on tumor sections obtained from SM and P44 treated mice by using antibody against HIF-1 α. […] All these observations implicate the significance of P44 peptide in restoring tissue architecture in tumor cells and thus potentiates its role as a tumor regressor.
FIG. 7. Histopathological changes in B16F1-induced tumors. A, Hematoxylin and eosin staining of tumor sections excised from mice treated with either P44 (upper panel) or SM (lower panel) peptide. […] The images have been recorded at 20× and 40×. B, Immunohistochemistry of paraffin embedded tumor sections from P44 treated as well as, SM treated mice. After antigen unmasking, sections were stained with HIF-1α antibody (middle panel) and detected using Cy-3 conjugated mouse immunoglobulin. Sections were counterstained with DAP1 for nuclear localization (left panel). Right panel corresponds to the merged image.
Immunohistochemical staining of tumor sections: Tumor sections in paraffin-embedded blocks were transferred to poly-L-lysine coated glass slides and air-dried overnight at 37° C. They were dewaxed in xylene (three changes) and […] in graded series of decreasing ethanol concentrations. […] Thereafter, detected using cy-3 fluorescence labeled secondary antibody. […]

The subject of test [1] is p53-driven p21 promoter in HEK 293 (p53+/+) cells. Put plainly: p21 luciferase reporter assay in HEK 293 (p53+/+) cells. In kind it is cell-based. As to conditions: 10 μM peptide, 12 h. The method, then: TAT-SMAR1 WT peptide (P44) modulates p53 function: To examine whether P44 peptide could alone activate p53^−, luciferase reporter assays were performed following treatment of cells with the chimeric TAT-SMAR1 derived peptides. HEK 293 (p53^+/+) cells were transfected with p21 expression plasmid having luciferase reporter gene and K562 (p53^−/−) cells were co-transfected with p21 luciferase reporter and p53 constructs. […] (FIG. 2A, bar 3) and about 1.5 fold activation in p53^−/− cell line (FIG. 2B, bar 4).
FIG. 2. P44 peptide activates the p53-driven p21 gene expression in reporter assays. p21 promoter activity was checked in both HEK 293 (p53^+/+) (A) and K562 (P53^−/−) cells (B). Cells were transfected with either pG13 […] reporter plasmid, a p53-driven p21 promoter, in HEK 293 cells or cotransfected with wild-type (wt) p53 in K562 cells. After 24 h post-transfection, cells were treated for 12 h with 10 μM concentration of various TAT-SMAR1 chimeric peptides. Y axis represents the fold luciferase activity (mean±SD of three independent experiments).
Luciferase reporter assay: HEK 293 (p53^+/+) and K562 (p53^−/−) cells were grown in DMEM supplemented with 10% FBS in the presence of 5% CO2 at 37° C., a total number of 1×10^6, cells were plated on a 6-well plate. After 24 h, cells were transiently transfected using lipofectamine-2000 with either 1 μg of p21 expression plasmid having luciferase reporter gene or 5 μg p21 luciferase along with wt p53 construct in K562 cell line. Two micrograms of pRL-CMV (Renilla luciferase reporter plasmid) was included in all transfections to normalize the transfection efficiency. Thirty six hours post-transfection, cells were treated with 10 μM of either P44 peptide or its various mutants. The cells were harvested 12 h post-treatment, washed with PBS and lysed in 1× Passive lysis buffer (Promega). After three freeze-thaw cycles, cells were spun at 10,000 rpm at 4° C. for 20 min. The supernatants were collected and protein concentrations were estimated spectrophotometrically using Bradford reagent as (BioRad, CA). According to the manufacturer's instructions, luciferase activity was assessed using the dual luciferase assay reporter kit (Promega). The luciferase activity was measured by using Fluoroskan Ascent Luminometer (Labsystems). For all the luciferase assays, the data shown are the mean+SD of three independent experiments.

For another test, the target named is T1, p53 (Homo sapiens, UniProt P04637).
T1 construct: HEK 293 (p53^+/+) cells; endogenous in cells; host or cells: HEK 293
Put plainly: Indirect immunofluorescence of p53 in peptide-treated HEK 293 cells (confocal imaging). The format is cell-based. The note with it: HEK 293, 10 μM peptide, 12 h. How it is done:
HEK 293 cells were treated with 10 μM of various TAT-SMAR1 derived peptides.
FIG. 4. Serine 347 residue of SMAR1 mediates p53 activation and stabilization. A, HEK 293 cells were cultured at a density of 5×10^5 cells and 24 h later treated with 10 μM concentration of either the P44 or various serine-mutant peptides (PS347A, PS348A, PS349A, PS350A and RS mutant; SM). After 12 h of treatment, protein lysates were prepared and immunoblotted using pSer-15 p53 and pcdc-2 antibodies. Actin was used as the loading control. B, Peptides P44 (panel B), PS347A (panel C), PS348A (panel D), PS349A (panel E), PS350A (panel F) and SM (panel G) were incubated at a final concentration of 10 μM with HEK 293 cells for 12 h before indirect immunofluorescence detection with a primary antibody against p53 protein and a secondary fluorescein-conjugated anti-mouse IgG.
Immunocytochemistry and confocal imaging: For direct detection of TRITC-labeled peptides, HEK 293 cells were plated directly on a glass coverslip and cultured overnight prior to their treatment to TRITC-conjugated various TAT-SMAR1 derived peptides. After 12 h incubation, three washings with cold PBS were given and the cells fixed with 3.7% paraformaldehyde before being mounted in PBS/Glycerol (1:1) containing antifading agent. For indirect immunodetection, 2×10^5 HEK 293 cells were plated and cultured overnight in 35 mm plates on glass coverslips. The cell monolayer was then treated with either of the various TAT SMAR1 derived peptides, dissolved directly in complete DMEM medium at the appropriate concentration (final concentration 10 μM). After 12 h incubation, cells were washed twice with cold PBS and fixed with 3.7% paraformaldehyde. Subsequently, fixed cells were stained for total p53 using anti-p53 (DO-1) (SantaCruz) for an hour at room temperature.
For detection, cells were incubated with a secondary-antibody mix containing FITC-conjugated anti-mouse IgG antibodies (Sigma) for 1 h at RT. Slides were then mounted in antifade mounting medium (Dako) and analyzed with a confocal laser scanning microscope (CLSM 510, version 2.01; Zeiss, Thornwood, N.Y.).

T1 sequence (P04637 whole entry): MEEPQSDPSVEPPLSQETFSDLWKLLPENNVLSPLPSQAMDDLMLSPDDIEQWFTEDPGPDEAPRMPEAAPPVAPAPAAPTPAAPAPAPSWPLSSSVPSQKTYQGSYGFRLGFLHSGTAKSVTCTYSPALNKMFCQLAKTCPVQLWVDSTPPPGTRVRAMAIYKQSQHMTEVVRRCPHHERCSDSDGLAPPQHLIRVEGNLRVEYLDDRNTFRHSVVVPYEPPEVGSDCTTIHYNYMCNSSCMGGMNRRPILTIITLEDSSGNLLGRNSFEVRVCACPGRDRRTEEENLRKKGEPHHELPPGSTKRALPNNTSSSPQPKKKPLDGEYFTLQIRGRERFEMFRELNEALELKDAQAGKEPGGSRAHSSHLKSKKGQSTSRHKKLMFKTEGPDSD

In the case of “YGRKKRRQRRRTAWRRKQRGQSLAVKSFSRRTPSSSSYSASETM [P44, 33 mer SMAR1 peptide (residues 324-357) conjugated with 11-mer TAT-PTD]”, the “HIF-1α expression in tumor sections” value with HIF-1α is listed as “no detectable level of HIF-1α”. For the same sequence, the “activation of p53 (p21 promoter driven luciferase activity)” value (shortened to “activation of p53”) in test [1] was 2 fold. Besides, the “p53 activation and stabilization within the nucleus” value with p53 is “activate and stabilize p53 within the nucleus”.

For “YGRKKRRQRRRTAWRRKQRGQSLAVKSFSRRTPSSSAYSASETM [PS350A, point mutant of P44, serine 350 replaced by alanine]”, the “activation of p53” value in test [1] is “No significant alteration”. In addition, in the test with p53, the “p53 activation and stabilization within the nucleus” value is on record as “p53 stabilization was observed”.

Turning to “YGRKKRRQRRRTAWRRKQRGQSLAVKSFSRRTPSASSYSASETM [PS348A, point mutant of P44, serine 348 replaced by alanine]”, in test [1], the “activation of p53” value is “No significant alteration”. Moreover, the “p53 activation and stabilization within the nucleus” value in the test with p53 is “p53 stabilization was observed”.

On to “YGRKKRRQRRRTAWRRKQRGQSLAVKSFSRRTPAAAAYSASETM [SM, P44 mutant where serine residues from 347-350 were replaced by alanines]”, for which the “HIF-1α expression in tumor sections” value in the test with HIF-1α is listed as “increased HIF-1 α expression”. In addition, the “activation of p53” value in test [1] is listed as “complete loss”. Moreover, in the test with p53, the “p53 activation and stabilization within the nucleus” value is listed as “almost negligible expression of p53 within the nucleus”.

“YGRKKRRQRRRTAWRRKQRGQSLAVKSFSRRTPSSASYSASETM [PS349A, point mutant of P44, serine 349 replaced by alanine]”: the “activation of p53” value in test [1] is “No significant alteration”. Moreover, in the test with p53, the “p53 activation and stabilization within the nucleus” value is “p53 stabilization was observed”.

In the case of “YGRKKRRQRRRTAWRRKQRGQSLAVKSFSRRTPASSSYSASETM [PS347A, point mutant of P44, serine 347 replaced by alanine]”, in test [1], the “activation of p53” value is on record as “complete loss”. Besides, the “p53 activation and stabilization within the nucleus” value with p53 was “almost negligible expression of p53 within the nucleus”.
